Test results reported in US11013710B2, “Synergistic compositions of bioactive agents for optimizing cellular health” (CELAGENEX RESEARCH (INDIA) PVT. LTD., priority 2018, dated 2021).

What was measured:
[1] = tested on: carrageenan induced rat paw edema; assay: Carrageenan induced rat paw edema model (acute anti-inflammatory activity); assay type: in vivo; conditions: for % inhibition of paw edema at 6th hr.: pretreated 1 hr before, L-EGT 0.512 mg/kg, NMN chloride 12.33 mg/kg, combination 0.512+12.33 mg/kg bw, vs positive control; for paw edema compared with Positive control group (G2): result in words
Method: In study thirty (30) rats, were divided into total […] groups. […] G3-G4 groups are referred as test substances. Acute anti inflammatory activity was measured using carrageenan induced rat paw edema model. Acute inflammation was induced by the sub planter administration of 0.1 ml of 1% carrageenan (0.9% NaCl solution) in the right hind paw of the rats. Group 1 was treated with normal saline. Group 2 positive control was treated with normal saline (with paw edema induction). Group 3, Group 4 and Group 5 were treated with test substance (G1—0.512 mg/kg, G2—12.33 mg/kg and G3-0.512 mg/kg+12.33 mg/kg bw) respectively. Excluding control group, all groups were pretreated 1 hr before eliciting paw edema. […] The perimeter of paw was measured by using vernier calipers. After the completions of the paw volume measurement animals were anesthetized and blood was collected for biochemical parameter analysis. The anti-inflammatory activity was calculated by following formula % inhibition of edema=((T−T0)/T)×100 T: Thickness of paw in positive control group T0: Thickness of paw edema in the test compound treated groups. The values were expressed in Mean±SEM. The significance of in vivo data was analyzed by One way anova followed by Dunnet test. P<0.05 was considered as statistically significant

IL-6 = assay: Serum IL-6 levels in carrageenan paw edema rats; assay type: in vivo, Rat; conditions: for IL-6: rat serum after paw volume measurement, Mean±SEM; for Serum interleukin-6 compared with positive control (G2) / Percentage inhibition over control (serum IL-6): rat serum; for Serum interleukin-6 compared with positive control (G2): result in words; for Percentage inhibition over control (serum IL-6): vs positive control
Method: (§1) Acute anti inflammatory activity was measured using carrageenan induced rat paw edema model. Acute inflammation was induced by the sub planter administration of 0.1 ml of 1% carrageenan (0.9% NaCl solution) in the right hind paw of the rats. Group 1 was treated with normal saline. Group 2 positive control was treated with normal saline (with paw edema induction). Group 3, Group 4 and Group 5 were treated with test substance (G1—0.512 mg/kg, G2—12.33 mg/kg and G3-0.512 mg/kg+12.33 mg/kg bw) respectively. Excluding control group, all groups were pretreated 1 hr before eliciting paw edema. The linear paw circumference was measured at Time intervals: 0, 30, 60, 120, 180 and 240 mins. The perimeter of paw was measured by using vernier calipers. After the completions of the paw volume measurement animals were anesthetized and blood was collected for biochemical parameter analysis. The values were expressed in Mean±SEM. The significance of in vivo data was analyzed by One way anova followed by Dunnet test. P<0.05 was considered as statistically significant

TNF-Alpha = assay: Serum TNF-Alpha levels in carrageenan paw edema rats; assay type: in vivo, Rat; conditions: for TNF-Alpha: rat serum after paw volume measurement, Mean±SEM; for Serum TNF-Alpha compared with positive control (G2) / Percentage inhibition over control (serum TNF-Alpha): rat serum; for Serum TNF-Alpha compared with positive control (G2): result in words; for Percentage inhibition over control (serum TNF-Alpha): vs positive control
Method: as §1

HepG2 cell line = assay: In vitro cytotoxicity (MTT) against HepG2 cell line; assay type: cell-based, Human; conditions: 72 h
Method: In-vitro cytotoxicity of the nutrients, G3, G4 and G5 were tested against HepG2 cell line. Nutrients were taken at concentrations ranging from 1000 μg/ml to 62.5 μg/ml to determine the percentage growth inhibition of individual substance on HepG2 cell line. The samples G3 and G4 produced a CTC50 value of above 1000 μg/ml. […] [Journal of Immunological Methods, 1986; 89:271-277].
The in vitro cytotoxicity was performed for samples G3, G4 and G5 on HepG2 to find toxic concentration and to determine the apoptotic activity of G3, G4 and G5.
(§2) For cytotoxicity studies, 10 mg of test substance was separately dissolved and volume was made up with MEM supplemented with 2% inactivated FBS to obtain a stock solution of 1 mg/ml concentration and sterilized by 0.22μ syringe filtration. Serial two fold dilutions were prepared from this for carrying out cytotoxic studies.
(§3) HepG2 (Human Hepatocyte) cell line was procured from National Centre for Cell Sciences (NCCS), Pune, India. Stock cells were cultured in MEM supplemented with 10% inactivated Fetal Bovine Serum (FBS), penicillin (100 IU/ml), streptomycin (100 μg/ml) and amphotericin B (5 μg/ml) in an humidified atmosphere of 5% CO2 at 7° C. until confluent. The cells were dissociated with TPVG solution (0.2% trypsin, 0.02% EDTA, 0.05% glucose in PBS). The stock cultures were grown in 25 cm^2 culture flasks and all experiments were carried out in 96 microtitre plates (Tarsons India Pvt. Ltd., Kolkata, India).
The monolayer cell culture was trypsinized and the cell count was adjusted to 100,000 cells/ml using DMEM-HG containing 10% FBS. To each well of the 96 well microtitre plate, 0.1 ml of the diluted cell suspension was added. After 24 h, when a partial monolayer was formed, the supernatant was flicked off, washed the monolayer once with medium and 100 μl of different test concentrations of test substances were added on to the partial monolayer in microtitre plates. The plates were then incubated at 37° C. for 3 days in 5% CO2 atmosphere, and microscopic examination was carried out and observations were noted every 24 h interval. After 72 h, the substance solutions in the wells were discarded and 50 μl of MTT in PBS was added to each well. The plates were gently shaken and incubated for 3 h at 37° C. in 5% CO2 atmosphere. The supernatant was removed and 100 μl of propanol was added and the plates were gently shaken to solubilize the formed formazan. The absorbance was measured using a microplate reader at a wavelength of 540 nm. The percentage growth inhibition was calculated using the standard formula and concentration of test substance needed to inhibit cell growth by 50% (CTC50) values is generated from the dose-response curves for each cell line.
as §2, with “substance powder” for “substance”, “with DMEM” for “with MEM”, “of 10” for “of 1”
as §3, with “DMEM” for “MEM”, “37°” for “7°”, “cm2” for “cm^2”
The monolayer cell culture was trypsinized and the cell count was adjusted to 100,000 cells/ml using medium containing 10% FBS. To each well of the 96 well microtitre plate, 0.1 ml of the diluted cell suspension was added. […]

HepG2 cells = assay: DNA fragmentation (DNA ladder assay) in HepG2 cells; assay type: cell-based, Human
Method: FIG. 3 depicts DNA ladder assay of test substances on HepG2 cell line; L=100 bp Ladder, Lane 1=AAPH (1 mM), Lane 2=cell control, Lane 3=G3 (250 μg/ml), Lane 4=G4(250 μg/ml), Lane 5=G5 (5:125-250 μg/ml), Lane 6=G3+AAPH, Lane 7=G4+AAPH, Lane 8=G5+AAPH
HepG2 cells (3×10^6/ml) were seeded into 60 mm petri dishes and incubated at 37° C. with 5% CO2 atmosphere for 24 h. The cells were washed with medium and were treated with extract, standard substance and incubated at 37° C., 5% CO2 for 24 hrs. At the incubation time ended, the chromosomal DNA of cancer cells was prepared with G Biosciences, USA apoptotic DNA ladder kit. Total genomic DNA was extracted and resolved on a 1% agarose gel. Apoptotic DNA fragmentation was visualized by ethidium bromide staining under UV transilluminator and photographed. (FIG. 3)

Nrf2 = assay: In vitro gene expression of Nrf2 (RT-PCR) in HepG2; assay type: cell-based, Human; conditions: HepG2, 250 μg/ml; cell control 1.00
Method: Nrf2 were estimated for the test substance by gene expression method, where the level of expression of Nrf2 expression on Human Hepatocytes (HepG2) was determined with respect to untreated HepG2 cells. The HepG2 cells treated with drug were subjected to cell lysis by treating with Tri-extract reagent. Chloroform was added, to isolate the total RNA from the sample and subjected for centrifugation. […] After the incubation followed by centrifugation, appropriate volume of ethanol was added to resuspend the pellet. After incubation and centrifugation, the pellet was air dried and appropriate volume of TAE buffer was added. […] The cDNA thus synthesized was taken up for Polymerase chain reaction (PCR) for the amplification of Nrf2 and Glyceraldehyde 3-phosphate dehydrogenase GAPDH (internal control). The mRNA expression levels of Nrf2 were determined using semi-quantitative reverse transcriptase-polymerase chain reaction (RT-PCR). 50 μl of the reaction mixture was subjected to PCR for amplification of Nrf2. cDNAs using specifically designed primers procured from Eurofins, India and as an internal control GAPDH (House keeping gene) was co-amplified with each reaction. Nrf2: 95° C. for 5 min followed by 35 cycles of denaturation at 95° C. for 30 seconds, annealing Tm for 30 seconds and extension at 72° C. for 45 seconds. This was followed by final extension at 72° C. for 10 min.

Question: Which results are given for Nicotinamide mononucleotide chloride?
Answer: % inhibition of paw edema at 6th hr. [1]: 40.80%; paw edema compared with Positive control group (G2) [1]: significant decreases paw edema; IL-6 (IL-6): 79.55 ± 0.95 pg/mL; Serum interleukin-6 compared with positive control (G2) (IL-6): significantly decreased; Percentage inhibition over control (serum IL-6) (IL-6): 21.34%; TNF-Alpha (TNF-Alpha): 185.2 ± 4.37 pg/mL; Serum TNF-Alpha compared with positive control (G2) (TNF-Alpha): significantly decreased; Percentage inhibition over control (serum TNF-Alpha) (TNF-Alpha): 20.18%; % Inhibition (HepG2 cell line; Test Conc. 62.5 μg/ml): 5.26 ± 1.5%; % Inhibition (HepG2 cell line; Test Conc. 125 μg/ml): 11.15 ± 3.32%; % Inhibition (HepG2 cell line; Test Conc. 250 μg/ml): 17.56 ± 1.16%; % Inhibition (HepG2 cell line; Test Conc. 500 μg/ml): 24.19 ± 1.59%; % Inhibition (HepG2 cell line; Test Conc. 1000 μg/ml): 31.49 ± 0.79%; DNA fragmentation (HepG2 cells; HepG2, 250 μg/ml, 24 hrs): did not exhibit any fragmentation of DNA; Regulation in Terms of Folds (gene expression level of Nrf2 normalized to GAPDH) (Nrf2): >1.0 Folds

Question: How did the “% inhibition of paw edema at 6th hr.” value [1] turn out when C[N+](C)(C)[C@@H](Cc1c[nH]c(=S)[nH]1)C(=O)[O-] [L-Ergothioneine] was run?
Answer: 35.08%

Question: What about the “paw edema compared with Positive control group (G2)” value [1] of the same compound?
Answer: significant decreases paw edema

Question: And the “IL-6” value (IL-6)?
Answer: 85.25 ± 0.30 pg/mL

Question: And the “Serum interleukin-6 compared with positive control (G2)” value (IL-6)?
Answer: significantly decreased

Question: What about the “Percentage inhibition over control (serum IL-6)” value (IL-6) of the same compound?
Answer: 15.74%

Question: What about the “TNF-Alpha” value (TNF-Alpha) of the same compound?
Answer: 201.5 ± 1.96 pg/mL

Question: What about the “Serum TNF-Alpha compared with positive control (G2)” value (TNF-Alpha) of the same compound?
Answer: significantly decreased

Question: And the “Percentage inhibition over control (serum TNF-Alpha)” value (TNF-Alpha)?
Answer: 13.21%

Question: What about the inhibition at 62.5 µg/mL (HepG2 cell line; Homo sapiens, Test Conc. 62.5 μg/ml) of the same compound?
Answer: 6.62 ± 0.88%

Question: And the inhibition at 125 µg/mL (HepG2 cell line; Homo sapiens, Test Conc. 125 μg/ml)?
Answer: 11 ± 1.31%

Question: What about the inhibition at 250 µg/mL (HepG2 cell line; Homo sapiens, Test Conc. 250 μg/ml) of the same compound?
Answer: 19 ± 1.05%

Question: What about the inhibition at 1000 µg/mL (HepG2 cell line; Homo sapiens, Test Conc. 1000 μg/ml) of the same compound?
Answer: 30 ± 1.52%

Question: What about the IC50 (HepG2 cell line; Homo sapiens, concentration needed to inhibit cell growth by 50%, read-out: CTC 50 in μg/ml) of the same compound?
Answer: > 1000 µg/mL

Question: And the DNA fragmentation (HepG2 cells; HepG2, 250 μg/ml, 24 hrs)?
Answer: did not exhibit any fragmentation of DNA

Question: And the “Regulation in Terms of Folds (gene expression level of Nrf2 normalized to GAPDH)” value (Nrf2)?
Answer: >1.0 Folds

Question: How did the DNA fragmentation (HepG2 cells; HepG2, AAPH (1 mM)) turn out when CC(C)(N=NC(C)(C)C(=N)N)C(=N)N.Cl.Cl [AAPH, 2,2′-azobis(2-amidinopropane)dihydrochloride, reference compound] was run?
Answer: showed a smear in the gel indicating the DNA fragmentation
